Assay results from the kinase profiling compilation of Christmann-Franck et al. (2016).
Several values for one entry are separate records, joined by “and”; a condition that tells them apart may be missing. Equal values may be shown once.

Key:
Experiment in all cases: Caliper, Mobility shift assay off-chip
[1] = tested on: ABL1 (human), P00519 [H396P]
[2] = tested on: ABL1 (human), P00519 [T315I]
[3] = target: BRSK1 (human) (UniProt Q8TDC3)
[4] = target: BRSK2 (human) (UniProt Q8IWQ3)
[5] = target: BTK (human) (UniProt Q06187)
[6] = target: CAMK2G (human) (UniProt Q13555)
Chain of CAMK2G (human) (Q13555 whole entry, looked up): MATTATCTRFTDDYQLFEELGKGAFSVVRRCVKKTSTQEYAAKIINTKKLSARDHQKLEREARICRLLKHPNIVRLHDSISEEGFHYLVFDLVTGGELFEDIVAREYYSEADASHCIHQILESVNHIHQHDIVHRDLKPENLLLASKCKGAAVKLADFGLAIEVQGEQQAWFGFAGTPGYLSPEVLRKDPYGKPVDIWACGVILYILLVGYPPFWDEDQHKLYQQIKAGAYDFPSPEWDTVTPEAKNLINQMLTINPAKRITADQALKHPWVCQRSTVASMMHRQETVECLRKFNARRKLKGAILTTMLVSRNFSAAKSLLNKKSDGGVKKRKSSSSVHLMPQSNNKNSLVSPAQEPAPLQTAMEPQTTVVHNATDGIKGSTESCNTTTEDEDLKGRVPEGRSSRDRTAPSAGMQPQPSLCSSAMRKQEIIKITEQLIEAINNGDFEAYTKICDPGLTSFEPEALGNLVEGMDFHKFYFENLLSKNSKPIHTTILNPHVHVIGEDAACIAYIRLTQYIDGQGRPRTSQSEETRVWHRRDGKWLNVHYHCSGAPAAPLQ

[7] = target: FGFR2 (human) (UniProt P21802)
[8] = target: FGFR3 (human) (UniProt P22607); conditions: compound 0.1 µM
[9] = tested on: FLT3 (human), P36888 [D835Y]
[10] = target: FYN (human) (UniProt P06241)
[11] = target: IKBKB (human) (UniProt O14920)
[12] = target: MAPK1 (human) (UniProt P28482)
[13] = target: MAPK12 (human) (UniProt P53778)
Chain of MAPK12 (human) (P53778 whole entry, looked up): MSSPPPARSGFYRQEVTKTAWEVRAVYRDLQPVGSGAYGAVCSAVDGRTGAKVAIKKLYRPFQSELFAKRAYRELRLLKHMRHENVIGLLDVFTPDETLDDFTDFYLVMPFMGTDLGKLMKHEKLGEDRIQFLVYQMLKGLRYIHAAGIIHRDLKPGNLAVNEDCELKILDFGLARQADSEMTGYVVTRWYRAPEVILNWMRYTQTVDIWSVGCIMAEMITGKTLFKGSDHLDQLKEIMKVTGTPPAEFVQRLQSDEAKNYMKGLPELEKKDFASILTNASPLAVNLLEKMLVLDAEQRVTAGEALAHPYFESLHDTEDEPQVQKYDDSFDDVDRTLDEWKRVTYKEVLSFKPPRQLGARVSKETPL

[14] = target: MAPKAPK2 (human) (UniProt P49137)
[15] = target: MAPKAPK3 (human) (UniProt Q16644)
[16] = target: MARK1 (human) (UniProt Q9P0L2)
[17] = target: MARK2 (human) (UniProt Q7KZI7)
[18] = target: NEK2 (human) (UniProt P51955)
[19] = target: PDGFRA (human) (UniProt P16234); conditions: compound 0.1 µM
[20] = target: PRKACA (human) (UniProt P17612)
[21] = target: PRKCA (human) (UniProt P17252)
[22] = target: PRKCD (human) (UniProt Q05655)
Chain of PRKCD (human) (Q05655 whole entry, looked up): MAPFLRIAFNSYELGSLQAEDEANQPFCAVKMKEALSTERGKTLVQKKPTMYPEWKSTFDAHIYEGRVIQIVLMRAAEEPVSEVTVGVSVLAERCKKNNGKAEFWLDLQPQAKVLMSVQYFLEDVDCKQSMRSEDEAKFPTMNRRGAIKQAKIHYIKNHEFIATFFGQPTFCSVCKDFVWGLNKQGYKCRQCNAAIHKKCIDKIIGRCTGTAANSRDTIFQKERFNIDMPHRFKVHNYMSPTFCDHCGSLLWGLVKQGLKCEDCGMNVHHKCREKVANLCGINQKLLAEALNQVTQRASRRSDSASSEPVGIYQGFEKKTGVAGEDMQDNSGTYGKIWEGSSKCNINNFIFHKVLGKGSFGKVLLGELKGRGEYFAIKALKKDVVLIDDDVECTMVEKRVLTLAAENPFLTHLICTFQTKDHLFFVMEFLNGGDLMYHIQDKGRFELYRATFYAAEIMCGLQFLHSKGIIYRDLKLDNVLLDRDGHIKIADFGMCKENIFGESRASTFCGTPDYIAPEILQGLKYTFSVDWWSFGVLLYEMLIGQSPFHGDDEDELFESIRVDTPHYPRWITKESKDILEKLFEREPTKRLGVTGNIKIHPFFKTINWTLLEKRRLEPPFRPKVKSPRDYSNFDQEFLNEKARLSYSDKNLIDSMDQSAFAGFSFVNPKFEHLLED

[23] = target: PRKCG (human) (UniProt P05129)
[24] = target: PRKCQ (human) (UniProt Q04759)
[25] = target: PRKCZ (human) (UniProt Q05513)
Chain of PRKCZ (human) (Q05513 whole entry, looked up): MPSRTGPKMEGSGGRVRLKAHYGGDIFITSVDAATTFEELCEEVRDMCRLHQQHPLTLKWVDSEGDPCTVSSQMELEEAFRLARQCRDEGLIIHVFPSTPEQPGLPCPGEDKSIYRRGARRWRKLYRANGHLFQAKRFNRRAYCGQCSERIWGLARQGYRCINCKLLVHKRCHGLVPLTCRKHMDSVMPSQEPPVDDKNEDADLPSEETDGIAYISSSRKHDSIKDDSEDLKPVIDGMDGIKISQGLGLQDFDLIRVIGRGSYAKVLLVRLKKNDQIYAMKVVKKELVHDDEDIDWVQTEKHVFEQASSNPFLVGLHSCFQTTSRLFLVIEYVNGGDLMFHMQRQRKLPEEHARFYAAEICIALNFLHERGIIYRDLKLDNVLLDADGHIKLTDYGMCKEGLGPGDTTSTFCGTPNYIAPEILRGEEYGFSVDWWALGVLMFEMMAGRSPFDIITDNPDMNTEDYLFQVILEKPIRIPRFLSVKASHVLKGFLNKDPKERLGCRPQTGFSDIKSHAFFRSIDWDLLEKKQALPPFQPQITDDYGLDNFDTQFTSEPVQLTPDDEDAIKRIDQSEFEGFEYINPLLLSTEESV

[26] = target: PRKD2 (human) (UniProt Q9BZL6)
Chain of PRKD2 (human) (Q9BZL6 whole entry, looked up): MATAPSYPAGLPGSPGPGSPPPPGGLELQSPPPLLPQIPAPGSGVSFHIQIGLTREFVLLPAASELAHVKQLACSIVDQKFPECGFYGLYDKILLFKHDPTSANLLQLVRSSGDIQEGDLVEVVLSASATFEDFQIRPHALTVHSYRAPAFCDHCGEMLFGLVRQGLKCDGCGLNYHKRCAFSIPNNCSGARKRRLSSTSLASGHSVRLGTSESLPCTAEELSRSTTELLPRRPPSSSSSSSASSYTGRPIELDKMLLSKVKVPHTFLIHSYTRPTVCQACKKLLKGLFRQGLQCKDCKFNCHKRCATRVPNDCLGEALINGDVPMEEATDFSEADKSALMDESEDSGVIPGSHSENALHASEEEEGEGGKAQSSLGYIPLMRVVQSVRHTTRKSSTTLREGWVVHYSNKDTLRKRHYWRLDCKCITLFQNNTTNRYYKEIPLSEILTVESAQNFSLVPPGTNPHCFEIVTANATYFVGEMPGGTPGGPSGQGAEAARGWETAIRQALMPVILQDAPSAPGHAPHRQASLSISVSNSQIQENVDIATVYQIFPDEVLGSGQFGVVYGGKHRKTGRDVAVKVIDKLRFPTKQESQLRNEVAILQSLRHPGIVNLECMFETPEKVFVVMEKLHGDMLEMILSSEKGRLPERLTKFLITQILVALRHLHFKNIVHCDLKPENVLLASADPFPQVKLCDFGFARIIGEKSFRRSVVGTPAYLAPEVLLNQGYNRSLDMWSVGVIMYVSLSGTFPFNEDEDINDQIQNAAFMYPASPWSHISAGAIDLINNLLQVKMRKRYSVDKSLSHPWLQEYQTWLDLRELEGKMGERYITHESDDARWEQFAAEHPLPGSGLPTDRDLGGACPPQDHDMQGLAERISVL

[27] = target: PRKG1 (human) (UniProt Q13976)
Chain of PRKG1 (human) (Q13976 whole entry, looked up): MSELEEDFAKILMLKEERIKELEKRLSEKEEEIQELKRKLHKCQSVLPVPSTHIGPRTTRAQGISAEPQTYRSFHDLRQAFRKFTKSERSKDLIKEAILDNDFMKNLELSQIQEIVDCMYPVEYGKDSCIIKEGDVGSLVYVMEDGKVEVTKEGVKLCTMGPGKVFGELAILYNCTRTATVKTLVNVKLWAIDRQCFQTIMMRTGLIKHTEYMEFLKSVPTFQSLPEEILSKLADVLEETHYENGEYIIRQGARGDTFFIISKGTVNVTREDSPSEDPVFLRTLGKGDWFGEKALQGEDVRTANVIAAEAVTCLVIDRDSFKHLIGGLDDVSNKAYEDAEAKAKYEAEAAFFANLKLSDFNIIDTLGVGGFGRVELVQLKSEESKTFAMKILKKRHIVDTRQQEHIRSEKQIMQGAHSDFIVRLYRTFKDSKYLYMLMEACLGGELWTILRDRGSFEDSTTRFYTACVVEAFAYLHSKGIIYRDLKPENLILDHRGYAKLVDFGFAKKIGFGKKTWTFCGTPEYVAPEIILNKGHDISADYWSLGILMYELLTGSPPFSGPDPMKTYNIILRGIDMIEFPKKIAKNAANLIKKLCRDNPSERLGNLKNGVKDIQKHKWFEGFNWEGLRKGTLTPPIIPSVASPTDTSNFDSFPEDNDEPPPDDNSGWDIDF

[28] = target: RPS6KA2 KD1 KD2 (human) (UniProt Q15349)
[29] = target: RPS6KA4 KD1 KD2 (human) (UniProt O75676)
[30] = target: RPS6KA5 KD1 KD2 (human) (UniProt O75582)
[31] = target: RPS6KB1 (human) (UniProt P23443)
[32] = target: SGK2 (human) (UniProt Q9HBY8)
[33] = target: SGK3 (human) (UniProt Q96BR1)
Chain of SGK3 (human) (Q96BR1 whole entry, looked up): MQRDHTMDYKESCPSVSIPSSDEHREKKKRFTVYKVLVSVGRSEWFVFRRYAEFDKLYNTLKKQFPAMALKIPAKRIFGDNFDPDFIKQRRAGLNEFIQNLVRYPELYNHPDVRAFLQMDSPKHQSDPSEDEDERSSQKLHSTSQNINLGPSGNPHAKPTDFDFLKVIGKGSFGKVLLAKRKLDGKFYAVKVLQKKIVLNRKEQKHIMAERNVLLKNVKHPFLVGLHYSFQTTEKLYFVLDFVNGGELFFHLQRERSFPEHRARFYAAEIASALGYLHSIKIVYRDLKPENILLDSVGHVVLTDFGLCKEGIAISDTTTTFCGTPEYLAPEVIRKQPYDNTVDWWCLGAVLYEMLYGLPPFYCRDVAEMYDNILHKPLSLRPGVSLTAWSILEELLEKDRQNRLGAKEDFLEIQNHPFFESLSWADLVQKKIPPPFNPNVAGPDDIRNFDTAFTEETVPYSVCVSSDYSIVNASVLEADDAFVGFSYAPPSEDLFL

[34] = target: SRC (human) (UniProt P12931)

## Cn1cc(-c2cnc3ccc4ccc(CS(=O)(=O)CCc5ccccn5)cc4c(=O)c3c2)cn1
[1]; compound 0.1 µM
  inhibition: 10.6%
[1]; compound 1.0 µM
  inhibition: 13.9%
[2]; compound 0.1 µM
  inhibition: 7.1%
[2]; compound 1.0 µM
  inhibition: 4.4%
[3]; compound 0.1 µM
  inhibition: -11.7%
[3]; compound 1.0 µM
  inhibition: 0.3%
[4]; compound 0.1 µM
  inhibition: 1.5%
[4]; compound 1.0 µM
  inhibition: 2.5%
[5]; compound 0.1 µM
  inhibition: -2.1%
[5]; compound 1.0 µM
  inhibition: 22%
[6]; compound 0.1 µM
  inhibition: -0.2%
[6]; compound 1.0 µM
  inhibition: -1.5%
[7]; compound 0.1 µM
  inhibition: 18.3%
[7]; compound 1.0 µM
  inhibition: 64.7%
[8]
  inhibition: 34.5%
[9]; compound 0.1 µM
  inhibition: 2.5%
[9]; compound 1.0 µM
  inhibition: 13.3%
[10]; compound 0.1 µM
  inhibition: -11.5%
[10]; compound 1.0 µM
  inhibition: -2.5%
[11]; compound 0.1 µM
  inhibition: 1.4%
[11]; compound 1.0 µM
  inhibition: -1.2%
[12]; compound 0.1 µM
  inhibition: -2.4%
[12]; compound 1.0 µM
  inhibition: -1.9%
[13]; compound 0.1 µM
  inhibition: -6.6%
[13]; compound 1.0 µM
  inhibition: 0.8%
[14]; compound 0.1 µM
  inhibition: -14.7%
[14]; compound 1.0 µM
  inhibition: -4.4%
[15]; compound 0.1 µM
  inhibition: 1.8%
[15]; compound 1.0 µM
  inhibition: -5.4%
[16]; compound 0.1 µM
  inhibition: 1.2%
[16]; compound 1.0 µM
  inhibition: -13.9%
[17]; compound 0.1 µM
  inhibition: -1.3%
[17]; compound 1.0 µM
  inhibition: 6.5%
[18]; compound 0.1 µM
  inhibition: -5.7%
[18]; compound 1.0 µM
  inhibition: -0.9%
[19]
  inhibition: -13%
[20]; compound 0.1 µM
  inhibition: -13.6%
[20]; compound 1.0 µM
  inhibition: 2.4%
[21]; compound 0.1 µM
  inhibition: 21.9%
[21]; compound 1.0 µM
  inhibition: -3%
[22]; compound 0.1 µM
  inhibition: -36%
[22]; compound 1.0 µM
  inhibition: 2.1%
[23]; compound 0.1 µM
  inhibition: -2%
[23]; compound 1.0 µM
  inhibition: -3.4%
[24]; compound 0.1 µM
  inhibition: -11.5%
[24]; compound 1.0 µM
  inhibition: -19.7%
[25]; compound 0.1 µM
  inhibition: 3.2%
[25]; compound 1.0 µM
  inhibition: 6.8%
[26]; compound 0.1 µM
  inhibition: -8.3%
[26]; compound 1.0 µM
  inhibition: -3.5%
[27]; compound 0.1 µM
  inhibition: 4.3% and 6.4%
[27]; compound 1.0 µM
  inhibition: -3.3% and -9.8%
[28]; compound 0.1 µM
  inhibition: 6.3%
[28]; compound 1.0 µM
  inhibition: 8.8%
[29]; compound 0.1 µM
  inhibition: -2.5%
[29]; compound 1.0 µM
  inhibition: -1.8%
[30]; compound 0.1 µM
  inhibition: -3.5%
[30]; compound 1.0 µM
  inhibition: -7.4%
[31]; compound 0.1 µM
  inhibition: -19.5%
[31]; compound 1.0 µM
  inhibition: -2.1%
[32]; compound 0.1 µM
  inhibition: -0.4%
[32]; compound 1.0 µM
  inhibition: -3.6%
[33]; compound 0.1 µM
  inhibition: -10.4%
[33]; compound 1.0 µM
  inhibition: 6.2%
[34]; compound 0.1 µM
  inhibition: -0.3%
[34]; compound 1.0 µM
  inhibition: 4.8%
